# In US11993599B2, “Therapeutic compounds” (Genentech, Inc., priority 2021, dated 2024):
# Legend:
# [1] = target: BRM (Homo sapiens, UniProt P51531); assay: Immunofluorescence assay for BRM degradation in SW1573 cells; format: cell-based; set-up: treated overnight at 4° C. with either BRM primary antibody (Cell signaling Cat #11966) or BRG primary antibody; endogenous in cells; host or cells: SW1573; conditions: 20 hours incubation; for DC50: immunofluorescence mean nuclear signal, read-out: BRM IF Degradation IC50; for BRM IF Degradation Sinf (%): normalized to a known degrader control
# Outline: (§1)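 Read-out is per-cell mean nuclear BRM or BRG1 immunofluorescence, imaged after 20 h compound exposure of SW1573 cells and normalized to a known degrader control. Concentration-response curves, fit with a floating maximum, yield degradation IC50 and Dmax.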
# [2] = target: T1, BRG1 (Homo sapiens, UniProt P51532); assay: Immunofluorescence assay for BRG1 degradation in SW1573 cells; format: cell-based; conditions: 20 hours incubation; for DC50: immunofluorescence mean nuclear signal, read-out: BRG1 IF Degradation IC50; for Dmax: SW1573, 20 h, normalized to a known degrader control, read-out: BRG1 IF Degradation Sinf (%)
# T1 construct: either BRM primary antibody (Cell signaling Cat #11966) or BRG primary antibody (Abcam, ab 110641); endogenous in cells; host or cells: SW1573
# Outline: as §1
# Chain of BRM (P51531 whole entry): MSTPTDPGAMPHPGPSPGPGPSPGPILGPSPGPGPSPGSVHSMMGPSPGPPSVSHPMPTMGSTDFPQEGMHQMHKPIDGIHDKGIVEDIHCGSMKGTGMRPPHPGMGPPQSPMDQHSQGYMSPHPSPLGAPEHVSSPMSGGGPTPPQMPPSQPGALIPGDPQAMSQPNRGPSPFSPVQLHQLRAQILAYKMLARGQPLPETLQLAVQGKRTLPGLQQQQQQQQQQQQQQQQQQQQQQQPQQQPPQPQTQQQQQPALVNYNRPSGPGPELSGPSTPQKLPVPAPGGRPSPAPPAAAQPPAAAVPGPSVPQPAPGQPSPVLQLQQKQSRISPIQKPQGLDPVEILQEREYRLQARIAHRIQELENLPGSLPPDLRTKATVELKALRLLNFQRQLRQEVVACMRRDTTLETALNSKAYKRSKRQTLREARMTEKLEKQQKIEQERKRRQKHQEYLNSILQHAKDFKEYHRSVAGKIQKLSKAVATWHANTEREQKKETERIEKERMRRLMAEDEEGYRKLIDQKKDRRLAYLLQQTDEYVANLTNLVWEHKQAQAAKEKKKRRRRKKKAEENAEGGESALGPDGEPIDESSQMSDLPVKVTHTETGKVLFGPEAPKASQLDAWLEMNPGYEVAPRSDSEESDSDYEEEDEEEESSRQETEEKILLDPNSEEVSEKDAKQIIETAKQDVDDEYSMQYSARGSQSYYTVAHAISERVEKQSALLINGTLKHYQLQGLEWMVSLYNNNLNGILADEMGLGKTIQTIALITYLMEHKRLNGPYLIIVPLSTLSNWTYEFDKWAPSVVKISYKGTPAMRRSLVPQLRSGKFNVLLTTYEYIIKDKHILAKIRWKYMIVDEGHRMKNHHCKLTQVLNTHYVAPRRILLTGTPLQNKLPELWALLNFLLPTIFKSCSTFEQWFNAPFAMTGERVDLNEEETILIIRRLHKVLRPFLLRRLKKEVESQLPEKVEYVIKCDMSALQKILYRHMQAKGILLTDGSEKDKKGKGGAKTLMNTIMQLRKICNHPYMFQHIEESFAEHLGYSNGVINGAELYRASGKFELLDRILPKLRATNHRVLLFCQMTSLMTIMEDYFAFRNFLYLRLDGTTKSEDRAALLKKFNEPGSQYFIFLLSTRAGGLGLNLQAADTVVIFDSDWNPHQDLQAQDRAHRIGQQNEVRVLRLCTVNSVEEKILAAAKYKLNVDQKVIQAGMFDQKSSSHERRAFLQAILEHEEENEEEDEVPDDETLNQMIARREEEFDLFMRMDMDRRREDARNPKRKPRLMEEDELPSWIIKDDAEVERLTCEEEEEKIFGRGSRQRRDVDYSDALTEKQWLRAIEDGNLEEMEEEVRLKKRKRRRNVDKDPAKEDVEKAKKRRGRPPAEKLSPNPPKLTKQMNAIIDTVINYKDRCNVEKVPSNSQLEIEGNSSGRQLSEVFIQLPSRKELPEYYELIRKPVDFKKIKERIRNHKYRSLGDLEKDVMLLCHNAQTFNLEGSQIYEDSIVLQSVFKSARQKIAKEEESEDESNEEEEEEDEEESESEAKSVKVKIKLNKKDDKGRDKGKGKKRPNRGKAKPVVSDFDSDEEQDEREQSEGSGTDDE
# T1 sequence (P51532 whole entry): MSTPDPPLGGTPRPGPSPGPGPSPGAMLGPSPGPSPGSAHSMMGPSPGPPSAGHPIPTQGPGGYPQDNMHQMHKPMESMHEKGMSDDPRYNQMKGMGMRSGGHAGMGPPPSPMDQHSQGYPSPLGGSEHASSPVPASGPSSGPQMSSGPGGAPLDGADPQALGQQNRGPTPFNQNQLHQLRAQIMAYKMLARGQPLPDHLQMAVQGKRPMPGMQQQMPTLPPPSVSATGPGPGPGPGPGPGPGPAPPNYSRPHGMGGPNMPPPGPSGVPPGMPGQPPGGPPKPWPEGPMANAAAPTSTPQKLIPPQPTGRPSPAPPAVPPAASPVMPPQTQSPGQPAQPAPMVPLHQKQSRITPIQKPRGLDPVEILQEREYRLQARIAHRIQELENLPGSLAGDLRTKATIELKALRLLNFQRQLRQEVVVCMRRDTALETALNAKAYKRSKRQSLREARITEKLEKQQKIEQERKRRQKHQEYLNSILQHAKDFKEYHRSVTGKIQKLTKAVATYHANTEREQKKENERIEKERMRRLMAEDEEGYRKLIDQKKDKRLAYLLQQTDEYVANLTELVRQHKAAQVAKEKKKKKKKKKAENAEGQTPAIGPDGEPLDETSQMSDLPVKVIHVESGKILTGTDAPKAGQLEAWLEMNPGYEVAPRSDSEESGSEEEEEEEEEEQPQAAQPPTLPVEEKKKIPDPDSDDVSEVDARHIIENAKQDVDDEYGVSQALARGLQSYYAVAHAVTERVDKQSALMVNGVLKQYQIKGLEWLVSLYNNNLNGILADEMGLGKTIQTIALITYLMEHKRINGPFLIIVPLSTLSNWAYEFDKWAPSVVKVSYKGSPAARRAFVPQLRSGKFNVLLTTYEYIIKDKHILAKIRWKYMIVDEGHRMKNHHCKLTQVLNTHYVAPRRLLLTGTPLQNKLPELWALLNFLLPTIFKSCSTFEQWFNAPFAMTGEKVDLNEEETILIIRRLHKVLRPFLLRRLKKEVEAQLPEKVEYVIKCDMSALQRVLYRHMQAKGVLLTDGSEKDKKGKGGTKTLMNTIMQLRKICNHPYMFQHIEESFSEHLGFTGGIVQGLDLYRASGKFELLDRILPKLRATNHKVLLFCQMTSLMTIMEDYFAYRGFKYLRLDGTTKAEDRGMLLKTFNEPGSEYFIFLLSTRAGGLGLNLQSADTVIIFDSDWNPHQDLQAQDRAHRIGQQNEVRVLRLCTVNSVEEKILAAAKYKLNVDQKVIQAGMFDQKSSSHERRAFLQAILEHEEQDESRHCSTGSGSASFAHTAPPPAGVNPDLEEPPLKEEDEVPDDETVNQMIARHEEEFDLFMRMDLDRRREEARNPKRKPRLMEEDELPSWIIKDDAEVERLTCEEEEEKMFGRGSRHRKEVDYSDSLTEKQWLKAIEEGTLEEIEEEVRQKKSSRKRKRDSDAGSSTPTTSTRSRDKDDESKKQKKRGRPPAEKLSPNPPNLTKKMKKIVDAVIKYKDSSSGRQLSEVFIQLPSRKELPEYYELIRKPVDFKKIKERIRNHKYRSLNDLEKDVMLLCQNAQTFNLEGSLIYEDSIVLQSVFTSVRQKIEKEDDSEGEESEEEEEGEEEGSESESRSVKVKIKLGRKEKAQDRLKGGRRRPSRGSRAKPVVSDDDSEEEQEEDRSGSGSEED
Structure (SMILES),DC50 [1] [nM],BRM IF Degradation Sinf (%) [1],DC50 [2] [nM],Dmax [2] [%]
"Nc1nnc(-c2ccccc2O)cc1N1CC2CCC(C1)N2c1ccnc(C#CCN2CCC3CCC2C3)c1 (centres unmarked) [Compound 221, 2-[6-amino-5-[8-[2-[3-(2-azabicyclo[3.2.1]octan-2-yl)prop-1-ynyl]-4-pyridyl]-3,8-diazabicyclo[3.2.1]octan-3-yl]pyridazin-3-yl]phenol]",< 10,E (E indicates −30%-−70%),< 10,30 to 70
"Nc1nnc(-c2ccccc2O)cc1N1CC2CCC(C1)N2c1ccnc(C#CCCN2CCCCCC2)c1 [Compound 222, 2-[6-amino-5-[8-[2-[4-(azepan-l-yl)but-1-ynyl]-4-pyridyl]-3,8-diazabicyclo[3.2.1]octan-3-yl]pyridazin-3-yl]phenol]",< 10,F (F indicates −71%-−120%),< 10,71 to 120
"Nc1nnc(-c2ccccc2O)cc1N1CC2CCC(C1)N2c1ccnc(C#CCN2CC(F)(F)C2)c1 [Compound 223, 2-[6-amino-5-[8-[2-[3-(3,3-difluoroazetidin-1-yl)prop-1-ynyl]-4-pyridyl]-3,8-diazabicyclo[3.2.1]octan-3-yl]pyridazin-3-yl]phenol]",10 to 100,E (E indicates −30%-−70%),< 10,30 to 70
"CCOC1CN(CC#Cc2cc(N3C4CCC3CN(c3cc(-c5ccccc5O)nnc3N)C4)ccn2)C1 [Compound 224, 2-[6-amino-5-[8-[2-[3-(3-ethoxyazetidin-1-yl)prop-1-ynyl]-4-pyridyl]-3,8-diazabicyclo[3.2.1]octan-3-yl]pyridazin-3-yl]phenol]",< 10,E (E indicates −30%-−70%),< 10,30 to 70
COC(=O)C1CN(CC#Cc2cc(N3C4CCC3CN(c3cc(-c5ccccc5O)nnc3N)C4)ccn2)C1 [Compound 225],10 to 100,E (E indicates −30%-−70%),< 10,0 to 30
"Nc1nnc(-c2ccccc2O)cc1N1CC2CCC(C1)N2c1ccnc(C#CCN2CC(Oc3ccccc3)C2)c1 [Compound 226, 2-[6-amino-5-[8-[2-[3-(3-phenoxyazetidin-1-yl)prop-1-ynyl]-4-pyridyl]-3,8-diazabicyclo[3.2.1]octan-3-yl]pyridazin-3-yl]phenol]",10 to 100,E (E indicates −30%-−70%),< 10,30 to 70
"CS(=O)(=O)C1CN(CC#Cc2cc(N3C4CCC3CN(c3cc(-c5ccccc5O)nnc3N)C4)ccn2)C1 [Compound 227, 2-[6-amino-5-[8-[2-[3-(3-methylsulfonylazetidin-1-yl)prop-1-ynyl]-4-pyridyl]-3,8-diazabicyclo[3.2.1]octan-3-yl]pyridazin-3-yl]phenol]",> 100,E (E indicates −30%-−70%),> 100,
"Nc1nnc(-c2ccccc2O)cc1N1CC2CCC(C1)N2c1ccnc(C#CCN2CC(F)C2)c1 [Compound 228, 2-[6-amino-5-[8-[2-[3-(3-fluoroazetidin-1-yl)prop-1-ynyl]-4-pyridyl]-3,8-diazabicyclo[3.2.1]octan-3-yl]pyridazin-3-yl]phenol]",< 10,E (E indicates −30%-−70%),< 10,0 to 30
"Nc1nnc(-c2ccccc2O)cc1N1CC2CCC(C1)N2c1ccnc(C#CCN2CC(N3CCOCC3)C2)c1 [Compound 229, 2-[6-amino-5-[8-[2-[3-(3-morpholinoazetidin-1-yl)prop-1-ynyl]-4-pyridyl]-3,8-diazabicyclo[3.2.1]octan-3-yl]pyridazin-3-yl]phenol]",10 to 100,F (F indicates −71%-−120%),10 to 100,30 to 70
"Nc1nnc(-c2ccccc2O)cc1N1CC2CCC(C1)N2c1ccnc(C#CCN2CC3(CCCCC3)C2)c1 [Compound 230, 2-[6-amino-5-[8-[2-[3-(2-azaspiro[3.5]nonan-2-yl)prop-1-ynyl]-4-pyridyl]-3,8-diazabicyclo[3.2.1]octan-3-yl]pyridazin-3-yl]phenol]",10 to 100,E (E indicates −30%-−70%),10 to 100,30 to 70
"Nc1nnc(-c2ccccc2O)cc1N1CC2CCC(C1)N2c1ccnc(C#CCN2CC(c3ccncn3)C2)c1 [Compound 231, 2-[6-amino-5-[8-[2-[3-(3-pyrimidin-4-ylazetidin-1-yl)prop-1-ynyl]-4-pyridyl]-3,8-diazabicyclo[3.2.1]octan-3-yl]pyridazin-3-yl]phenol]",< 10,E (E indicates −30%-−70%),< 10,30 to 70
"Nc1nnc(-c2ccccc2O)cc1N1CC2CCC(C1)N2c1ccnc(C#CCN2CC(C(F)(F)F)C2)c1 [Compound 232, 2-[6-amino-5-[8-[2-[3-[3-(trifluoromethyl)azetidin-1-yl]prop-1-ynyl]-4-pyridyl]-3,8-diazabicyclo[3.2.1]octan-3-yl]pyridazin-3-yl]phenol]",10 to 100,E (E indicates −30%-−70%),< 10,30 to 70
"Nc1nnc(-c2ccccc2O)cc1N1CC2CCC(C1)N2c1ccnc(C#CCN2CC3(CC3)C2)c1 [Compound 233, 2-[6-amino-5-[8-[2-[3-(5-azaspiro[2.3]hexan-5-yl)prop-1-ynyl]-4-pyridyl]-3,8-diazabicyclo[3.2.1]octan-3-yl]pyridazin-3-yl]phenol]",< 10,E (E indicates −30%-−70%),< 10,30 to 70
"Nc1nnc(-c2ccccc2O)cc1N1CC2CCC(C1)N2c1ccnc(C#CCN2CC(c3ccccc3)C2)c1 [Compound 234, 2-[6-amino-5-[8-[2-[3-(3-phenylazetidin-1-yl)prop-1-ynyl]-4-pyridyl]-3,8-diazabicyclo[3.2.1]octan-3-yl]pyridazin-3-yl]phenol]",10 to 100,E (E indicates −30%-−70%),10 to 100,71 to 120
"Nc1nnc(-c2ccccc2O)cc1N1CC2CCC(C1)N2c1ccnc(C#CCN2CCC23CCC3)c1 [Compound 235, 2-[6-amino-5-[8-[2-[3-(1-azaspiro[3.3]heptan-1-yl)prop-1-ynyl]-4-pyridyl]-3,8-diazabicyclo[3.2.1]octan-3-yl]pyridazin-3-yl]phenol]",10 to 100,F (F indicates −71%-−120%),< 10,30 to 70
"CS(=O)(=O)N1CCC2(CN(CC#Cc3cc(N4C5CCC4CN(c4cc(-c6ccccc6O)nnc4N)C5)ccn3)C2)C1 [Compound 236, 2-[6-amino-5-[8-[2-[3-(7-methylsulfonyl-2,7-diazaspiro[3.4]octan-2-yl)prop-1-ynyl]-4-pyridyl]-3,8-diazabicyclo[3.2.1]octan-3-yl]pyridazin-3-yl]phenol]",> 100,F (F indicates −71%-−120%),10 to 100,0 to 30
"N#Cc1ccc(C2CN(CC#Cc3cc(N4C5CCC4CN(c4cc(-c6ccccc6O)nnc4N)C5)ccn3)C2)cc1 [Compound 237, 4-[1-[3-[4-[3-[3-amino-6-(2-hydroxyphenyl)pyridazin-4-yl]-3,8-diazabicyclo[3.2.1]octan-8-yl]-2-pyridyl]prop-2-ynyl]azetidin-3-yl]benzonitrile]",10 to 100,E (E indicates −30%-−70%),10 to 100,30 to 70
"Nc1nnc(-c2ccccc2O)cc1N1CC2CCC(C1)N2c1ccnc(C#CCN2CC(F)(C3CC3)C2)c1 [Compound 238, 2-[6-amino-5-[8-[2-[3-(3-cyclopropyl-3-fluoro-azetidin-1-yl)prop-1-ynyl]-4-pyridyl]-3,8-diazabicyclo[3.2.1]octan-3-yl]pyridazin-3-yl]phenol]",10 to 100,E (E indicates −30%-−70%),< 10,30 to 70
"CC1CCN(CC#Cc2cc(N3C4CCC3CN(c3cc(-c5ccccc5O)nnc3N)C4)ccn2)CCC1(C)O (centres unmarked) [Compound 239, 1-[3-[4-[3-[3-amino-6-(2-hydroxyphenyl)pyridazin-4-yl]-3,8-diazabicyclo[3.2.1]octan-8-yl]-2-pyridyl]prop-2-ynyl]-4,5-dimethyl-azepan-4-ol]",< 10,E (E indicates −30%-−70%),< 10,30 to 70
"CC1(O)CCCCN(CC#Cc2cc(N3C4CCC3CN(c3cc(-c5ccccc5O)nnc3N)C4)ccn2)C1 (centres unmarked) [Compound 240, 1-[3-[4-[3-[3-amino-6-(2-hydroxyphenyl)pyridazin-4-yl]-3,8-diazabicyclo[3.2.1]octan-8-yl]-2-pyridyl]prop-2-ynyl]-3-methyl-azepan-3-ol]",10 to 100,F (F indicates −71%-−120%),10 to 100,30 to 70
"Nc1nnc(-c2ccccc2O)cc1N1CC2CCC(C1)N2c1ccnc(C#CCN2CCCCC(O)(CF)C2)c1 (centres unmarked) [Compound 241, 1-[3-[4-[3-[3-amino-6-(2-hydroxyphenyl)pyridazin-4-yl]-3,8-diazabicyclo[3.2.1]octan-8-yl]-2-pyridyl]prop-2-ynyl]-3-(fluoromethyl)azepan-3-ol]",10 to 100,E (E indicates −30%-−70%),< 10,0 to 30
